Measured values from patent US20230203130A1, “A PEPTIDE COCKTAIL” (Hubro Therapeutics AS, priority 2020, published 2023).
Where two headings read alike, the source gives them in different places. Where no end group is shown, it is not given here.

Key:
[1] = test system: T-cells from PMBCs of healthy donors; assay: T-cell proliferation after stimulation of PMBCs with mixture fsp17, fsp15 and fsp16 (Example 9); format: cell-based, human
Experimental: Using a similar procedure to that used in Examples 4 and 7 above, PMBCs from four healthy donors were stimulated in vitro with a peptide mixture containing equimolar amounts (10 uM) of fsp17 (SEQ ID NO: 126), fsp15 (SEQ ID NO: 127) and fsp16 (SEQ ID NO: 128), which are shown in Table 15, below. These peptides have the non-chiral amino acid glycine at their C-terminal, which can serve as a linker for conjugation of the peptides to other molecules. It is expected that this C-terminal glycine will not create any new T-cell epitopes which will change the specificity of the induced T-cells.
After one round (14 days) of in vitro stimulation, T-cells were harvested and tested for recognition of the peptide mixture or individual peptides, using a concentration of 10 μM of each peptide. T-cell proliferation was measured as counts per minute (CPM) after uptake of ^3H-thymidine in a standard T cell proliferation assay.
The PMBCs from the four healthy donors underwent a second round of in vitro stimulation, and T-cells were again harvested and tested for proliferation against the peptide mixture and the individual peptides.

[2] = format: physicochemical
Experimental: A batch of fsp5 (SEQ ID NO: 19) was prepared by solid phase peptide synthesis (SPPS) by using FMOC chemistry and Prelude synthesizer (Gyros Protein Technologies Inc., USA). The crude peptide was analysed by UPLC and MS. […] UPLC system: Column; Acquity UPLC BEH C18 […], detection; PDA 210-500 nm, solvent A); 0.1% TFA in water, solvent B; 0.1% TFA in MeCN, gradient: 20-70% B (2-10 minutes, linear).
When the purity of the small amount of purified fsp5 (SEQ ID NO: 19) was reassessed by UPLC after lyophilisation, the purity had dropped from around 90% to below 50% as shown in FIG. 4.

[3] = test system: T cells (PBMC) from healthy donors; assay: T-cell proliferation (3H-thymidine, SI) after in vitro stimulation of PBMC with cocktail fsp2+fsp4 (Example 4); format: cell-based, human; design: T cell proliferation (stimulation index, SI): immunogenicity: dose or concentration left out as unconfirmed
Experimental: Fresh buffy coats from four healthy donors were obtained from a blood bank.
Peripheral blood mononuclear cells (PBMC) isolated from fresh buffy coats from four healthy donors were counted and suspended in DC medium to 15*10^6 cells/ml, and subsequently diluted with DC-medium to 4*10^6 cells/ml (Table 6).
Four 24-well plates were used for each donor, with 4*10^6 cells per well (each well has a volume of 1 ml).
Peptide cocktail: Solution of peptides fsp2+fsp4, containing […] of each peptide. 40 μl peptide solution was added to each well.
The plates were incubated in a cell incubator for 14 days (37° C., 5% CO2). IL-2 and IL-7 were added on day 3. The cells were inspected daily.
Test peptides: fsp2+fsp4 (SEQ ID NOs: 21 and 23), fsp1 (SEQ ID NO: 20), fsp2 (SEQ ID NO: 21), fsp3 (SEQ ID NO: 22), fsp4 (SEQ ID NO: 23), fsp5 (SEQ ID NO: 19).
Negative controls: T cells, T cells+APC (without addition of test peptides)
Cells and reagents were added to plate wells (in triplicate) as described in Tables 8 and 9 below. The total volume added to each well was 0.20 ml. • T cells (PBMC): 50 000 cells/well (0.25*10^6 cells/ml) • APC: Irradiated (30 Gy, 8 minutes) autologous feeder cells: 50 000 cells/well • (fspx): 0.2 nmol peptide/well (each peptide), concentration: […] peptide. (fsp was dissolved in DMSO before dilution to correct concentration)
The plates were incubated in a cell incubator for 48 hours (37° C., 5% CO2).
After incubation for 48 hours, 20 μl 3H-tThymidine solution (5 Ci/ml) was added to each well and the plates were incubated for approximately 17 hours (37° C., 5% CO2).
After 17 hours the cells were harvested (Unifilters) and dried on the filters at 45° C. until completely dry. After covering the bottom of the Unifilters with adhesive covers (delivered with the Unifilters) 25 μl micro scintillation liquid was added to each well, the plate was covered with TopSeal and 3H-Thymidine uptake was measured as counts per minute (CPM) using a microplate scintillation counter.
The T cell proliferation results after the first round of in vitro stimulation with the cocktail of fsp2 and fsp4 peptides are presented as stimulation index (SI) in FIG. 10. SI=mean CPM (triplicates) of (T cells+APC+test peptide(s)) divided by mean CPM (triplicates) of (T cells+APC). SI>1 indicates an increase in T-cell proliferation and SI 2 is a clear sign of immunogenicity.
PBMCs harvested after the first in vitro stimulation were re-stimulated in vitro according to the protocol set out above, with 2×10^6 cells per well. T-cell proliferation was tested according to the protocol set out above.

[4] = format: physicochemical; remark: listed apart in the source
Experimental: The peptide was difficult to dissolve and it was attempted to dissolve the crude fsp5 (SEQ ID NO: 19) (˜150 mg) in approximately 4 ml 50% MeCN in water under gentle heating.
Another batch of fsp5 (SEQ ID NO: 19) was prepared, dissolved in neat DMSO under gentle heating and purified by preparative HPLC. Again, only very small amounts of purified fsp5 (SEQ ID NO: 19) were obtained.

[5] = test system: T cells; settings: cited from earlier work
[6] = test system: colorectal cancer cell line HCT116; settings: Linnebacher et al.; HCT116 carries the corresponding frameshift mutation; cited from earlier work
[7] = test system: T-cells from PMBCs of healthy donors; assay: T-cell proliferation after stimulation of PMBCs with mixture fsp10, fsp11 and fsp13 (Example 8); format: cell-based, human; settings: FIG. 19; for T-cell response (proliferation, CPM): donor 1, one round of in vitro stimulation (14 days), 10 μM
Experimental: Using a similar procedure to that used in Examples 4 and 7 above, PMBCs from four healthy donors were stimulated in vitro with a peptide mixture containing equimolar amounts (10 uM) of fsp10 (SEQ ID NO: 28), fsp11 (SEQ ID NO: 29) and fsp13 (SEQ ID NO: 31).
After one round of stimulation (14 days), T-cells were harvested and tested for recognition of the peptide mixture, using single peptide concentrations of 10 μM. T-cell proliferation was measured as counts per minute (CPM) after uptake of ^3H-thymidine in a standard T cell proliferation assay.
The PMBCs from the four healthy donors underwent a second round of in vitro stimulation, and T-cells were again harvested and tested for proliferation against the peptide mixture and the individual peptides. […] While it has, in the past, been considered that a SI value of greater than 2 is the criterion for indicating a T-cell response in a T-cell proliferation assay, this is only the case in subjects who have been vaccinated prior to the T-cell proliferation assay. Where a healthy subject has not been vaccinated before the T-cell proliferation assay (as in the present T-cell proliferation assay), it is not expected that a SI value of 2 or greater will be achieved. Therefore, in non-vaccinated, healthy subjects, an increase in the SI value above 1 is indicative of a T-cell response.

[8] = second round of in vitro stimulation, FIG. 22

KGIMKEKKSLVRLSSCVPVALMSAMTG (not fully specified) [fsp17, modified peptide of −1a frameshifted TGFβR2]
T-cell induction (proliferation) [1, 8]: T-cells were induced

KCIMKEKKSLVRLSSCVPVALMSAMTTSSSQKN (listed as Homo sapiens) [fsp5, optimised consensus peptide of TGFβR2]
purity by UPLC after lyophilisation (stability) [2]: below 50%
relative immunogenicity ([3]; FIGS. 10 and 11, compared with fsp3 and fsp4): more immunogenic than peptides which do not comprise amino acids from the wild-type sequence of TGFβR2
T cell proliferation (stimulation index, SI): immunogenicity ([3]; first and second round of in vitro stimulation with cocktail of fsp2 and fsp4, four healthy donors, FIGS. 10-12): stimulated T-cells induced from PMBCs
effect of adding water to DMSO solution [4]: precipitation of the peptide
solubility [4]: no clear solution could be obtained

KKKGRRNRIPAVLRTEGEPLHTPSVGMRETG (listed as Homo sapiens) [fsp15, peptide of −1a frameshifted ASTE1]
T-cell induction (proliferation) ([1]; one round (14 days) of in vitro stimulation, 10 μM, FIG. 21): T-cells are induced
T-cell induction (proliferation) [1, 8]: T-cells were induced

RLSSCVPVA (listed as Homo sapiens) [p573, prior art peptide of mutTGFβR2]
immunogenicity ([5]; EP1078000 FIG. 14, four rounds of stimulation of the T-cells): not immunogenic
immunogenicity ([5]; Linnebacher et al., FIG. 1): immunogenic
activating specific CTLs ([5]; Linnebacher et al., HLA-A2.1 restricted, in vitro): capable of activating specific CTLs
immunogenicity ([5]; Saeterdal et al., 2001, Cancer Immunol Immunother): immunogenic
generation of CTL line and CTL clones ([5]; Saeterdal et al., Cancer Immunol Immunother 2001): able to generate a CTL line and several CTL clones
lysis of colorectal cancer cell line HCT116 [6]: able to lyse the colorectal cancer cell line HCT116

STCPTYVKGSPSCPLRDLQ (listed as Homo sapiens) [fsp13, peptide of −1a frameshifted SLC22A9]
T-cell response (proliferation, CPM) [7]: did not stimulate T-cells

SCPLRDLQTLWPILALISMSSIWGTMFS (listed as Homo sapiens) [fsp11, peptide of −1a frameshifted SLC22A9]
T-cell response (proliferation, CPM) [7]: induced T-cell responses
induction of T-cells relative to mixture of fsp11 and fsp13 ([7]; donor 1, one round): greater induction of T-cells than the mixture of fsp11

KKTLRNHLFLIRWIILTFLQKILK (listed as Homo sapiens) [fsp10, peptide of −1a frameshifted KIAA2018]
T-cell response (proliferation, CPM) [7]: did not stimulate T-cells
